Measurements taken from patent US6939716B2, “Method for detecting conditions indicative of sepsis” (Washington University, priority 2001, dated 2005).
“Also recorded” adds a separate entry of the source.

B1: catalase: a peroxide scavenger (protein, UniProt P04040 2-527, looked up)
Catalase: ADSRDPASDQMQHWKEQRAAQKADVLTTGAGNPVGDKLNVITVGPRGPLLVQDVVFTDEMAHFDRERIPERVVHAKGAGAFGYFEVTHDITKYSKAKVFEHIGKKTPIAVRFSTVAGESGSADTVRDPRGFAVKFYTEDGNWDLVGNNTPIFFIRDPILFPSFIHSQKRNPQTHLKDPDMVWDFWSLRPESLHQVSFLFSDRGIPDGHRHMNGYGSHTFKLVNANGEAVYCKFHYKTDQGIKNLSVEDAARLSQEDPDYGIRDLFNAIATGKYPSWTFYIQVMTFNQAETFPFNPFDLTKVWPHKDYPLIPVGKLVLNRNPVNYFAEVEQIAFDPSNMPPGIEASPDKMLQGRLFAYPDTHRHRLGPNYLHIPVNCPYRARVANYQRDGPMCMQDNQGGAPNYYPNSFGAPEQQPSALEHSIQYSGEVRRFNTANDDNVTQVRAFYVNVLNEEQRKRLCENIAGHLKDAQIFIQKKAVKNFTEVHPDYGSHIQALLDKYNAEKPKNAIHTFVQSGSHLAAREKANL

How the values were obtained:
Klebsiella pneumoniae = assay: Bacterial killing by myeloperoxidase; assay type: cell-based
Protocol: Bacterial killing. The bactericidal activity of myeloperoxidase was quantified by conventional procedures as described previously (ref. 27). Briefly, Klebsiella pneumoniae were cultured in Luria-Bertani broth to mid-log growth phase, washed with PBS, and used at 10^9 bacteria/mL. Bacteria were incubated with 5 nM enzyme, 5 nM H2O2, and 100 mM NaCl in PBS (pH 5.5) for 15 min at 37° C. Serial dilutions were immediately spread on agar plates and the colony forming units determined after overnight incubation at 37° C.

myeloperoxidase = biological target: T1, myeloperoxidase (Homo sapiens, UniProt P05164); assay: Generation of N-acetyl-L-3-bromotyrosine by the myeloperoxidase-H2O2-Cl^−-Br^− system (reverse-phase HPLC); assay type: biochemical; conditions: for effect on bromination of N-acetyl-L-tyrosine by myeloperoxidase: acidic (pH 5.9) and neutral conditions; for effect on bromination by the myeloperoxidase-H2O2-Cl^−-Br^− system: mildly acidic conditions (pH 5.9)
T1 construct: endogenous in cells; host or cells: HL60 cells (endogenous enzyme, purified in house)
T1 sequence (P05164 49-745): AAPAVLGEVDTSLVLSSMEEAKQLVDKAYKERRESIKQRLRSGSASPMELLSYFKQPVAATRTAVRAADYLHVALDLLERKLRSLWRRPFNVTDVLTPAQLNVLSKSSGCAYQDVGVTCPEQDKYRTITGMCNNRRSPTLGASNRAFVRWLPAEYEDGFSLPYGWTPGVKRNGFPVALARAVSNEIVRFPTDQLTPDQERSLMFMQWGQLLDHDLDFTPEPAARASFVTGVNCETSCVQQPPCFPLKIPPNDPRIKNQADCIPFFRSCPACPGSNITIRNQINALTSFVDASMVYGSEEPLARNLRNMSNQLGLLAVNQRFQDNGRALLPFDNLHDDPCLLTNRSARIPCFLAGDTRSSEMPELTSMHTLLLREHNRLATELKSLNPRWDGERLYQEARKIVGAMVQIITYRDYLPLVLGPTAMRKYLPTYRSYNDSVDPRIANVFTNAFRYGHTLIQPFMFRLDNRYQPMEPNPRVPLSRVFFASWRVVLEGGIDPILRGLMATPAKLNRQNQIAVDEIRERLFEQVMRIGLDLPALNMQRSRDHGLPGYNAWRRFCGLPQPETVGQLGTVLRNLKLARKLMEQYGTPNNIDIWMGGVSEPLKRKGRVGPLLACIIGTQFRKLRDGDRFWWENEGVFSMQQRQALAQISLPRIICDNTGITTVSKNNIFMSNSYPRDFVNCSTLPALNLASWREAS
Protocol: (§1) General procedures. Myeloperoxidase was purified from HL60 cells (ref. 19). Enzyme was apparently pure as assessed by its absorption spectrum (A430/A280 ratio>0.8), SDS-PAGE, and peroxidase activity gel electrophoresis (ref. 20). Porcine eosinophil peroxidase (A415/A280>0.9) was from ExOxEmis (Little Rock, Ark.). Chloride-free NaOCl and HOBr were prepared by conventional procedures as described previously (refs. 21,22). Peritoneal white blood cells were elicited with intraperitoneal (i.p.) injection of 4% thioglycollate and harvested 24 h after injection (ref. 23). SDS-PAGE was performed using 10% Bis-Tris NuPAGE gels (Invitrogen; Carlsbad, Calif.). The separated proteins were transferred onto a nitrocellulose membrane, which was blocked overnight at 4° C. with 5% milk and 0.05% Tween-20 in phosphate-buffered saline (PBS; 10 mM phosphate, 138 mM NaCl, 2.7 mM KCl, pH 7.4). The blot was then incubated (1 h) with rabbit anti-mouse myeloperoxidase antibody (1:1,000) followed by goat anti-rabbit immunoglobulin antibody (1:10,000; Santa Cruz Biotechnology; Santa Cruz, Calif.) conjugated with horseradish peroxidase. West Pico chemiluminescent substrate (Pierce; Rockford, Ill.) was added, and the membrane was exposed to autoradiography film and developed.
Reaction conditions. Reactions were carried out for 60 min at 37° C. in buffer A (100 mM NaCl, 50 mM sodium phosphate, 100 μM diethylenetriaminepentaacetic acid (DTPA)) supplemented with 1 mM N-acetyl-L-tyrosine and either 50 μM hypohalous acid or 3 nM peroxidase and 50 μM H2O2. Buffer A was passed over a Chelex resin column prior to use to remove redox active transition metal ions. Reactions were initiated by the addition of oxidant and terminated with 0.1 mM methionine.
(§2) Reverse-phase HPLC analyses of halogenated amino acids. Analyses were performed using a flow rate of 1 mL/min and an Ultrasphere ODS reverse-phase column (4.6 mm×25 cm; 5 μm; Beckman Instruments; Berkeley, Calif.) coupled to a Waters 484 Tunable Absorbance Detector with monitoring at 275 nm. Solvent A was 0.1% trifluoroacetic acid (TFA, pH 2.5), and solvent B was 0.1% TFA in methanol (pH 2.5). The gradient profile was: isocratic elution at 66:34 (v/v) A:B over 2.1 min; linear increase of B from 34% to 40% over 30 min; isocratic elution at 60:40 A:B for 3 min; increase of B from 40% to 100% over 2 min; and isocratic elution at 100% B for 3 min. Products were quantified using integrated peak areas by comparison to standard curves of authentic N-Ac-chlorotyrosine and N-Ac-bromotyrosine.

[1] = Generation of N-acetyl-L-3-bromotyrosine by the HOCl-Cl^−-Br^− system (reverse-phase HPLC)
Protocol: as §2, with “Reaction conditions. Reactions were carried out for 60 min at 37° C. in buffer A (100 mM NaCl, 50 mM sodium phosphate, 100 μM diethylenetriaminepentaacetic acid (DTPA)) supplemented with 1 mM N-acetyl-L-tyrosine and either 50 μM hypohalous acid or 3 nM peroxidase and 50 μM H2O2. Buffer A was passed over a Chelex resin column prior to use to remove redox active transition metal ions. Reactions were initiated by the addition of oxidant and terminated with 0.1 mM methionine. Reverse-phase” for “Reverse-phase”

eosinophil peroxidase = biological target: T2, eosinophil peroxidase (Sus scrofa, UniProt P80550); assay: Generation of N-acetyl-L-3-bromotyrosine by the eosinophil peroxidase-H2O2-Cl^−-Br^− system (reverse-phase HPLC); assay type: biochemical, Porcine
T2 construct: purchased ExOxEmis (Little Rock, Ark.)
T2 sequence (P80550 143-704): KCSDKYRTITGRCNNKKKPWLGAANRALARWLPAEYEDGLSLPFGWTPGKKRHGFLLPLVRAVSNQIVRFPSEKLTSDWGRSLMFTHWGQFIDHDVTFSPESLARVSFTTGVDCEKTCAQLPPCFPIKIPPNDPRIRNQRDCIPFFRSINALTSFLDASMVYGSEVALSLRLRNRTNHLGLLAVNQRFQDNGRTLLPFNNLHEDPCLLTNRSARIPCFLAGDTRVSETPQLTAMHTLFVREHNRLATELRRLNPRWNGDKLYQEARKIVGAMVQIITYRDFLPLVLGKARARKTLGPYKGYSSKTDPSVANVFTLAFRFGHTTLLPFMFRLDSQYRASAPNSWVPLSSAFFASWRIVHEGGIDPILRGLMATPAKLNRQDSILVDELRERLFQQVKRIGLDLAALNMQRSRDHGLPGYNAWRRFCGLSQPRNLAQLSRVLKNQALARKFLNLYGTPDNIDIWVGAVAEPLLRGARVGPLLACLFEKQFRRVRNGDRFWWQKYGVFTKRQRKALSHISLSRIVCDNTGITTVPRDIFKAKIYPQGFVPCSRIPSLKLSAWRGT
Protocol: as §1, with “The blot was then incubated (1 h) with rabbit anti-mouse myeloperoxidase antibody (1:1,000) followed by goat anti-rabbit immunoglobulin antibody (1:10,000; Santa Cruz Biotechnology; Santa Cruz, Calif.) conjugated with horseradish peroxidase. West Pico chemiluminescent substrate (Pierce; Rockford, Ill.) was added, and the membrane was exposed to autoradiography film and developed.” left out
Reverse-phase HPLC analyses of halogenated amino acids. Analyses were performed using a flow rate of 1 mL/min and an Ultrasphere ODS reverse-phase column (4.6 mm×25 cm; 5 μm; Beckman Instruments; Berkeley, Calif.) coupled to a Waters 484 Tunable Absorbance Detector with monitoring at 275 nm. […] Products were quantified using integrated peak areas by comparison to standard curves of authentic N-Ac-chlorotyrosine and N-Ac-bromotyrosine.

[2] = neutral conditions (pH 7), taurine 200 μM
[3] = mildly acidic conditions (pH 5.9)

| Molecule | bacteria killing (dead) (Klebsiella pneumoniae; 1 μM Br added to the complete myeloperoxidase-H2O2-Cl^− system) | effect on bacteria killing (Klebsiella pneumoniae; 10 μM Br^− added to the complete myeloperoxidase-H2O2-Cl^− system) | effect on bromination of N-acetyl-L-tyrosine by myeloperoxidase (myeloperoxidase) | effect on bromination by the myeloperoxidase-H2O2-Cl^−-Br^− system (myeloperoxidase) | effect on bromination by the myeloperoxidase-H2O2-Cl^−-Br^− system (myeloperoxidase; listed as Taurine) | effect on N-acetyl-L-3-bromotyrosine formation by the myeloperoxidase-H2O2-Cl^−-Br^− system (myeloperoxidase; [2]) | effect on formation of N-acetyl-L-3-bromotyrosine by the HOCl-Cl^−-Br^− system [1, 3] | effect on formation of N-acetyl-L-3-bromotyrosine by the HOCl-Cl^−-Br^− system [1, 2] | effect on production of N-acetyl-L-3-bromotyrosine by the eosinophil peroxidase-H2O2-Cl^−-Br^− system (eosinophil peroxidase; [3]) | effect on N-acetyl-L-3-bromotyrosine formation by the eosinophil peroxidase-H2O2-Cl^−-Br^− system (eosinophil peroxidase; [2]) |
| --- | --- | --- | --- | --- | --- | --- | --- | --- | --- | --- |
| Br [Br^−, bromide] | 72% | completely inhibitory |  |  |  |  |  |  |  |  |
| NCCS(=O)(=O)O [taurine] |  |  | inhibited | almost completely inhibited | inhibited | only partially inhibited; also recorded: only partly inhibited | inhibited | completely inhibited | failed to affect | little affect |
| B1 |  |  | inhibited |  |  |  |  |  |  |  |
